This passage reports IC50 results from patent US7566712B2, “Biaryl piperazinyl-pyridine analogues” (Neurogen Corporation, priority 2003, dated 2009).

A value given as a limit tells only on which side of the number the result lay.

This assay addresses T1, human capsaicin receptor (Homo sapiens, UniProt Q8NER1).
T1 construct: pBK-CMV expression construct encoding the full length human capsaicin receptor; expressed in transfected cells
In words: Calcium mobilization assay, determination of antagonist activity (Example 6). Format: cell-based. The settings on record: Table II; determined as described in Example 6 (antagonist activity); "*" = 1 micromolar or less. In outline:
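HEK293 clonal lines stably expressing full-length human capsaicin receptor, loaded with Fluo-3 AM in KRH buffer pH 7.4, 1–2 h at 37 °C. Compounds (1–5 μM final) preincubated 0.5–6 h at room temperature, then capsaicin at its EC50 added. FLIPR/Fluoroskan calcium signal; IC50 as 50% decrease of capsaicin response.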
(In general: A change in cytosolic calcium serves as a functional read-out for many receptors and channels.)

T1 sequence (Q8NER1 whole entry): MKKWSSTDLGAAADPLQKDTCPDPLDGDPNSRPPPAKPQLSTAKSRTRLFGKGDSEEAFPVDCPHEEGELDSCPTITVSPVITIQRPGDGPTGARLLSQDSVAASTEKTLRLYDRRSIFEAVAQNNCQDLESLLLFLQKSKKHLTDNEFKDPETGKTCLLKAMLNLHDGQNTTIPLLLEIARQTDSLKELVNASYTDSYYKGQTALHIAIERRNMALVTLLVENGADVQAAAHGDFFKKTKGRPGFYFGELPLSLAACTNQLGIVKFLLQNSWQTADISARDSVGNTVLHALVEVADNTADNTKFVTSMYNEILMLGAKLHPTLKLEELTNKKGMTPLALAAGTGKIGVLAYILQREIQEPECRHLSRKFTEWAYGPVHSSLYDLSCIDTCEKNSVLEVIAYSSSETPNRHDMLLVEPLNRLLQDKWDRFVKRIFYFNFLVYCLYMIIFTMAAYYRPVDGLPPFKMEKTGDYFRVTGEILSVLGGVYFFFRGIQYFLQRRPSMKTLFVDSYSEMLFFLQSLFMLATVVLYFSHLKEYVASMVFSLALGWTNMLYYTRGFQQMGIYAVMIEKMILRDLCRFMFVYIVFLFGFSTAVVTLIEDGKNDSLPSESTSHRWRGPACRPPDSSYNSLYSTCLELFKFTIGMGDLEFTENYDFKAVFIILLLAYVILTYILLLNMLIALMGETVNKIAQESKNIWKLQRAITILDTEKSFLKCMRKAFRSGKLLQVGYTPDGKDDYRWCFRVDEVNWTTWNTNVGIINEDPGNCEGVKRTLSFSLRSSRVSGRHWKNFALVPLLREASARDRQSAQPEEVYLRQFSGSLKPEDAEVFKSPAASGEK

What is called IC50 is the midpoint of a concentration-inhibition curve. As for `C[C@@H]1CN(c2ncccc2Cl)CCN1c1cc(-c2ccc(F)cc2)nc(N2CCCCC2)n1` [Example 844, 4-[(2R)-4-(3-chloropyridin-2-yl)-2-methylpiperazin-1-yl]-6-(4-fluorophenyl)-2-piperidin-1-ylpyrimidine], the IC50 is ≤ 1 µM.
With `C[C@@H]1CN(c2ncccc2Cl)CCN1c1cc(-c2ccc(F)cc2)nc(N2CCOCC2)n1` [Example 845, 4-[4-[(2R)-4-(3-chloropyridin-2-yl)-2-methylpiperazin-1-yl]-6-(4-fluorophenyl)pyrimidin-2-yl]morpholine], the IC50 is ≤ 1 µM.
Turning to `CC(=O)c1nc(-c2ccc(F)c(C(C)=O)c2)cc(N2CCN(c3ncccc3C(F)(F)F)CC2)n1` [Example 846, 1-(4-(3-acetyl-4-fluorophenyl)-6-{4-[3-(trifluoromethyl)pyridin-2-yl]piperazin-1-yl}pyrimidin-2-yl)ethanone], the IC50 was ≤ 1 µM.
Consider `C[C@@H]1CN(c2ncccc2Cl)CCN1c1cc(-c2ccc(C#N)cc2)nc(S(C)(=O)=O)n1` [Example 847, 4-[6-[(2R)-4-(3-chloropyridin-2-yl)-2-methylpiperazin-1-yl]-2-(methylsulfonyi)pyrimidin-4-yl]benzonitrile], for which the IC50 was ≤ 1 µM.
`O=C(O)CCc1cccc(-c2cc(N3CCN(c4ncccc4C(F)(F)F)CC3)nc(N3CCOCC3)n2)c1` [Example 848, 3-(3-(2-morpholin-4-yl-6-{4-[3-(trifluoromethyl)pyridin-2-yl]piperazin-1-yl}pyrimidin-4-yl)phenyl]propanoic acid]: the IC50 was ≤ 1 µM.
For the compound `O=C(O)CCc1ccc(-c2cc(N3CCN(c4ncccc4C(F)(F)F)CC3)nc(N3CCOCC3)n2)cc1` [Example 849, 3-[4-(2-morpholin-4-yl-6-{4-[3-(trifluorormethyl)pyridin-2-yl]piperazin-1-yl}pyrimidin-4-yl)phenyl]propanoic acid], the IC50 was ≤ 1 µM.
As for `OCCCc1cccc(-c2cc(N3CCN(c4ncccc4C(F)(F)F)CC3)nc(N3CCOCC3)n2)c1` [Example 850, 3-[3-(2-morpholin-4-yl-6-{4-[3-(trifluoromethyl)pyridin-2-yl]piperazan-1-yl}pyrimidin-4-yl)phenyi]propan-1-ol], the figure is ≤ 1 µM.
In the case of `CN(C)CCCc1cccc(-c2cc(N3CCN(c4ncccc4C(F)(F)F)CC3)nc(N3CCOCC3)n2)c1` [Example 851, N,N-dimethyl-3-[3-(2-morpholin-4-yl-6-{4-[3-(trifluoromethyl)pyridin-2-yl]piperazin-1-yl}pyrimidin-4-yl)phenyl]propan-1-amine] it was ≤ 1 µM.
As for `Cc1cccnc1N1CCN(c2cc(-c3ccc(F)c(Cl)c3)nc(N3CCOCC3)n2)[C@H](C)C1` [Example 852, 4-{4-(3-chloro-4-fluorophenyl)-6-[(2R)-2-methyl-4-(3-methylpyridin-2-yl)piperazin-1-yl]pyrimidin-2-yl}morpholine], the concentration for half-maximal inhibition (IC50) was ≤ 1 µM.
For `CC1CCCN1c1nc(-c2ccc(F)c(Cl)c2)cc(N2CCN(c3ncccc3Cl)CC2=O)n1` (stereo not shown) [Example 853, 1-[6-(3-chloro-4-fluorophenyl)-2-(2-methylpyrrolidin-1-yl)pyrimidin-4-yl]-4-(3-chloropyridin-2-yl)piperazin-2-one], the IC50 is ≤ 1 µM.
In the case of `COC[C@@H]1CCCN1c1nc(-c2cncc(Cl)c2)cc(N2CCN(c3ncccc3Cl)C[C@H]2C)n1` [Example 854, 4-(5-chloropyridin-3-yl)-6-[(2R)-4-(3-chloropyridin-2-yl)-2-methylpiperazin-1-yl]-2-[(2S)-2-(methoxymethyl)pyrrolidin-1-yl]pyrimidine] it was ≤ 1 µM.
Regarding `CC1CCN1c1nc(-c2cncc(Cl)c2)cc(N2CCN(c3ncccc3Cl)C[C@H]2C)n1` (stereo partly shown) [Example 855, 4-(5-chloropyridin-3-yl)-6-[4-(3-chloropyridin-2-yl)-2-methylpiperazin-1-yl]-2-(2-methylazetidin-1-yl)pyrimidine], the IC50 was ≤ 1 µM.
In the case of `CC(=O)c1ccc(-c2cc(N3CCN(c4ncccc4Cl)C[C@H]3C)nc(N3CCCC3)n2)cc1` [Example 856, 1-(4-{6-[(2R)-4-(3-chloropyridin-2-yl)-2-methylpiperazin-1-yl]-2-pyrrolidin-1-ylpyrimidin-4-yl)phenyl)ethanone], the half-inhibitory concentration (IC50) is ≤ 1 µM.
As for `CC(=O)c1ccc(-c2cc(N3CCN(c4ncccc4Cl)C[C@H]3C)nc(N3CCCC3C)n2)cc1` (stereo partly shown) [Example 857, 1-{4-[6-[4-(3-chloropyridin-2-yl)-2-methylpiperazin-1-yl]-2-(2-methylpyrrolidin-1-yl)pyrimidin-4-yl]phenyl}ethanone], the IC50 is ≤ 1 µM.
On to `CC(=O)c1ccc(-c2cc(N3CCN(c4ncccc4Cl)C[C@H]3C)nc(N3CCOCC3)n2)cc1` [Example 858, 1-(4-{6-[(2R)-4-(3-chloropyridin-2-yl)-2-methylpiperazin-1-yl]-2-morpholin-4-ylpyrimidin-4-yl}phenyl)ethanone], for which the IC50 is ≤ 1 µM.
For `CC1CCCN1c1nc(-c2ccc(C#N)cc2)cc(N2CCN(c3ncccc3Cl)C[C@H]2C)n1` (stereo partly shown) [Example 859, 4-[6-[4-(3-chloropyridin-2-yl)-2-methylpiperazin-1-yl]-2-(2-methylpyrrolidin-1-yl)pyrimidin-4-yl]benzonitrile], the IC50 was ≤ 1 µM.
In the case of `C[C@@H]1CN(c2ncccc2Cl)CCN1c1cc(-c2ccc(C#N)cc2)nc(N2CCCC2)n1` [Example 860, 4-{6-[(2R)-4-(3-chloropyridin-2-yl)-2-methylpiperazin-1-yl]-2-pyrrolidin-1-ylpyrimidin-4-yl}benzonitrite] it was ≤ 1 µM; in that of `C[C@@H]1CN(c2ncccc2Cl)CCN1c1cc(-c2ccc(C#N)cc2)nc(N2CCOCC2)n1` [Example 861, 4-{6-[(2R)-4-(3-chloropyridin-2-yl)-2-methylpiperazin-1-yl]-2-morpholin-4-ylpyrimidin-4-yl}benzonitrile], ≤ 1 µM.
As for `CC(=O)c1nc(-c2ccc(F)c(F)c2)cc(N2CCN(c3ncccc3C(F)(F)F)CC2)n1` [Example 862, 1-(4-(3,4-difluorophenyl)-6-{4-[3-(trifluoromethyl)pyridin-2-yl]piperazin-1-yl}pyrimidin-2-yl)ethanone], the figure is ≤ 1 µM.
`CCCN1CC=C(c2nc(-c3ccc(F)c(Cl)c3)cc(N3CCN(c4ncccc4C(F)(F)F)CC3)n2)CC1` [Example 863, 4-(3-chloro-4-fluorophenyl)-2-(1-propyl-1,2,3,6-tetrahydropyridin-4-yl)-6-{4-[3-(trifluoromethyl)pyridin-2-yl]piperazin-1-yl}pyrimidine]: the IC50 is ≤ 1 µM.
On to `Fc1ccc(-c2cc(N3CCN(c4ncccc4C(F)(F)F)CC3)nc(C3=CCNCC3)n2)cc1Cl` [Example 864, 4-(3-chloro-4-fluorophenyl)-2-(1,2,3,6-tetrahydropyridin-4-yl)-6-{4-(3-(trifluoromethyl)pyridin-2-yl]piperazin-1-yl}pyrimidine], for which the IC50 was ≤ 1 µM.
As for `CC1CCCN1c1nc(-c2ccc(-c3ncon3)cc2)cc(N2CCN(c3ncccc3Cl)C[C@H]2C)n1` (stereo partly shown) [Example 865, 4-[4-(3-chloropyridin-2-yl)-2-methylpiperazin-1-yl]-2-(2-methylpyrrolidin-1-yl)-6-[4-(1,2,4-oxadiazol-3-yl)phenyl]pyrimidine], the figure is ≤ 1 µM.
